Values belong to the compound of their own block, whether it stands above or below them.
Legend:
[1] = molecular target: Beta-3 adrenergic receptor (Canis lupus familiaris, UniProt O02662); assay: Agonist activity at dog beta3 adrenergic receptor expressed in CHO cells assessed as accumulation of cAMP after 30 mins by TR-FRET assay; assay type: functional, cell-based
[2] = molecular target: T1, Beta-3 adrenergic receptor (Homo sapiens, UniProt P13945); assay: Agonist activity at human adrenergic beta3 receptor expressed in CHO cells assessed as accumulation of cAMP after 30 mins by TR-FRET assay in presence of 40% serum relative to (R)-(-)-isoproterenol; assay type: functional, cell-based
Target sequence in this assay (P13945 whole entry, looked up): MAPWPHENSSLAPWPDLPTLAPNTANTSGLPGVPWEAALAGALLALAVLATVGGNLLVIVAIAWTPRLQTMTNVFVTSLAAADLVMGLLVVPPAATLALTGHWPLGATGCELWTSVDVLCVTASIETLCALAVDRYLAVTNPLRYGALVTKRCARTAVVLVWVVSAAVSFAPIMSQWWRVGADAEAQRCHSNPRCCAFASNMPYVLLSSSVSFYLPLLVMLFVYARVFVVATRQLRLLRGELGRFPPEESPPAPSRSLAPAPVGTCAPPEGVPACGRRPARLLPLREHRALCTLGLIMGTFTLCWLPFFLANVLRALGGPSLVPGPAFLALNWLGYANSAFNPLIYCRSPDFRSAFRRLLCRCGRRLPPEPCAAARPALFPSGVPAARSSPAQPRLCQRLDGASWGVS

[3] = molecular target: Beta-3 adrenergic receptor (Rattus norvegicus) (UniProt P26255); assay: Agonist activity at rat beta3 adrenergic receptor expressed in CHO cells assessed as accumulation of cAMP after 30 mins by TR-FRET assay in presence of 40% serum relative to (R)-(-)-isoproterenol; assay type: functional, cell-based
Chain of Beta-3 adrenergic receptor (Rattus norvegicus) (P26255 whole entry): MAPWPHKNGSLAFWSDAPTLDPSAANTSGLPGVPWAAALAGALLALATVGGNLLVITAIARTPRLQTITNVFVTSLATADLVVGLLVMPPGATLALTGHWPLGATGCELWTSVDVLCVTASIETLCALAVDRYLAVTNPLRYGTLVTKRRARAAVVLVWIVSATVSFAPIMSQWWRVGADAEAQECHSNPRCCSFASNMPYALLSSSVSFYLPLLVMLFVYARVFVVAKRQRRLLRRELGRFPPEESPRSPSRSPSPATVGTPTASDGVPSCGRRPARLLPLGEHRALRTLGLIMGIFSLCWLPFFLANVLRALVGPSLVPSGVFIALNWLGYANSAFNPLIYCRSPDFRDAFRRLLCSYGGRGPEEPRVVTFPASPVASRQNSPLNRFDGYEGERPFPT

[4] = molecular target: Beta-3 adrenergic receptor (Macaca mulatta) (UniProt Q28524); assay: Agonist activity at rhesus monkey beta3 adrenergic receptor expressed in CHO cells assessed as accumulation of cAMP after 30 mins by TR-FRET assay in presence of 40% serum relative to (R)-(-)-isoproterenol; assay type: functional, cell-based
Chain of Beta-3 adrenergic receptor (Macaca mulatta) (Q28524 whole entry): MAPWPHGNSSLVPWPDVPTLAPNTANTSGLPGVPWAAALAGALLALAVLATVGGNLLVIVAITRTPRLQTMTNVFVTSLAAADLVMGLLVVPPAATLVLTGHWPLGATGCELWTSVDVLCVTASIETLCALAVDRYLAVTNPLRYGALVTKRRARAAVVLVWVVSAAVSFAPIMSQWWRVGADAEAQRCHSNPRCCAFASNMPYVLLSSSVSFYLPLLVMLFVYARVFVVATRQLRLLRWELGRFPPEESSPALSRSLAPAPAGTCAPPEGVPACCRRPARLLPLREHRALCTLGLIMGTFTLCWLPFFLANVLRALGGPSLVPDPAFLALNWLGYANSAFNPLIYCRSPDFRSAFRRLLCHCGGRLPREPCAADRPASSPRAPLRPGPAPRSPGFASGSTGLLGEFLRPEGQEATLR

[5] = Induction of phospholidosis in human HepG2 cells incubated overnight by […] in presence of fluorescent labeled phospholipid probe NBD-PE; assay type: cell-based; conditions: read-out: A50
[6] = molecular target: Sodium-dependent serotonin transporter (Homo sapiens, UniProt P31645); assay: Inhibition of human SERT expressed in HEK293 cells preincubated for 30 mins followed by fluorescent substrate addition measured after 30 mins by plate reader analysis; assay type: cell-based
Chain of Sodium-dependent serotonin transporter (P31645 whole entry): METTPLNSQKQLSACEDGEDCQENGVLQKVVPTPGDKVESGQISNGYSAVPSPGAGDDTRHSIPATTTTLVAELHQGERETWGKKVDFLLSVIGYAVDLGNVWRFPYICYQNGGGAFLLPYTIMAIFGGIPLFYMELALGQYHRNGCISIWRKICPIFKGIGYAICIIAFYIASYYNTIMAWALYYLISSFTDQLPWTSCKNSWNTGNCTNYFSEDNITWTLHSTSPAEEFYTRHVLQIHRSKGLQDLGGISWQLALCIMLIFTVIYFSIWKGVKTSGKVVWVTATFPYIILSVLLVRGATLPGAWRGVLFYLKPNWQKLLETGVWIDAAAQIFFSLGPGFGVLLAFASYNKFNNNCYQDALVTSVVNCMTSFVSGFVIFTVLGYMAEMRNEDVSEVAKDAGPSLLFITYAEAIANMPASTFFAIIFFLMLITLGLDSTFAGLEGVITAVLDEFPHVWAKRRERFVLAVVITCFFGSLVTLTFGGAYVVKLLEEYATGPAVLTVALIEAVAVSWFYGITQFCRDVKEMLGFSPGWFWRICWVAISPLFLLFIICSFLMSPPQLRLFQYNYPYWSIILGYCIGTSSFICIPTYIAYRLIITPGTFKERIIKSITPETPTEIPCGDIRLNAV

[7] = Distribution coefficient, logD of the compound at pH 7.4; assay type: physicochemical; conditions: octanol/water
[8] = molecular target: Sodium channel protein type 2 subunit alpha (Homo sapiens, UniProt Q99250); assay: Inhibition of human Nav1.2 channel expressed in Xenopus oocytes by two-intracellular microelectrode voltage clamp method; assay type: cell-based
[9] = molecular target: Voltage-dependent L-type calcium channel subunit alpha-1C (Homo sapiens, UniProt Q13936); assay: Displacement of [3H]-diltiazem from human Cav1.2 channel
Chain of Voltage-dependent L-type calcium channel subunit alpha-1C (Q13936 whole entry): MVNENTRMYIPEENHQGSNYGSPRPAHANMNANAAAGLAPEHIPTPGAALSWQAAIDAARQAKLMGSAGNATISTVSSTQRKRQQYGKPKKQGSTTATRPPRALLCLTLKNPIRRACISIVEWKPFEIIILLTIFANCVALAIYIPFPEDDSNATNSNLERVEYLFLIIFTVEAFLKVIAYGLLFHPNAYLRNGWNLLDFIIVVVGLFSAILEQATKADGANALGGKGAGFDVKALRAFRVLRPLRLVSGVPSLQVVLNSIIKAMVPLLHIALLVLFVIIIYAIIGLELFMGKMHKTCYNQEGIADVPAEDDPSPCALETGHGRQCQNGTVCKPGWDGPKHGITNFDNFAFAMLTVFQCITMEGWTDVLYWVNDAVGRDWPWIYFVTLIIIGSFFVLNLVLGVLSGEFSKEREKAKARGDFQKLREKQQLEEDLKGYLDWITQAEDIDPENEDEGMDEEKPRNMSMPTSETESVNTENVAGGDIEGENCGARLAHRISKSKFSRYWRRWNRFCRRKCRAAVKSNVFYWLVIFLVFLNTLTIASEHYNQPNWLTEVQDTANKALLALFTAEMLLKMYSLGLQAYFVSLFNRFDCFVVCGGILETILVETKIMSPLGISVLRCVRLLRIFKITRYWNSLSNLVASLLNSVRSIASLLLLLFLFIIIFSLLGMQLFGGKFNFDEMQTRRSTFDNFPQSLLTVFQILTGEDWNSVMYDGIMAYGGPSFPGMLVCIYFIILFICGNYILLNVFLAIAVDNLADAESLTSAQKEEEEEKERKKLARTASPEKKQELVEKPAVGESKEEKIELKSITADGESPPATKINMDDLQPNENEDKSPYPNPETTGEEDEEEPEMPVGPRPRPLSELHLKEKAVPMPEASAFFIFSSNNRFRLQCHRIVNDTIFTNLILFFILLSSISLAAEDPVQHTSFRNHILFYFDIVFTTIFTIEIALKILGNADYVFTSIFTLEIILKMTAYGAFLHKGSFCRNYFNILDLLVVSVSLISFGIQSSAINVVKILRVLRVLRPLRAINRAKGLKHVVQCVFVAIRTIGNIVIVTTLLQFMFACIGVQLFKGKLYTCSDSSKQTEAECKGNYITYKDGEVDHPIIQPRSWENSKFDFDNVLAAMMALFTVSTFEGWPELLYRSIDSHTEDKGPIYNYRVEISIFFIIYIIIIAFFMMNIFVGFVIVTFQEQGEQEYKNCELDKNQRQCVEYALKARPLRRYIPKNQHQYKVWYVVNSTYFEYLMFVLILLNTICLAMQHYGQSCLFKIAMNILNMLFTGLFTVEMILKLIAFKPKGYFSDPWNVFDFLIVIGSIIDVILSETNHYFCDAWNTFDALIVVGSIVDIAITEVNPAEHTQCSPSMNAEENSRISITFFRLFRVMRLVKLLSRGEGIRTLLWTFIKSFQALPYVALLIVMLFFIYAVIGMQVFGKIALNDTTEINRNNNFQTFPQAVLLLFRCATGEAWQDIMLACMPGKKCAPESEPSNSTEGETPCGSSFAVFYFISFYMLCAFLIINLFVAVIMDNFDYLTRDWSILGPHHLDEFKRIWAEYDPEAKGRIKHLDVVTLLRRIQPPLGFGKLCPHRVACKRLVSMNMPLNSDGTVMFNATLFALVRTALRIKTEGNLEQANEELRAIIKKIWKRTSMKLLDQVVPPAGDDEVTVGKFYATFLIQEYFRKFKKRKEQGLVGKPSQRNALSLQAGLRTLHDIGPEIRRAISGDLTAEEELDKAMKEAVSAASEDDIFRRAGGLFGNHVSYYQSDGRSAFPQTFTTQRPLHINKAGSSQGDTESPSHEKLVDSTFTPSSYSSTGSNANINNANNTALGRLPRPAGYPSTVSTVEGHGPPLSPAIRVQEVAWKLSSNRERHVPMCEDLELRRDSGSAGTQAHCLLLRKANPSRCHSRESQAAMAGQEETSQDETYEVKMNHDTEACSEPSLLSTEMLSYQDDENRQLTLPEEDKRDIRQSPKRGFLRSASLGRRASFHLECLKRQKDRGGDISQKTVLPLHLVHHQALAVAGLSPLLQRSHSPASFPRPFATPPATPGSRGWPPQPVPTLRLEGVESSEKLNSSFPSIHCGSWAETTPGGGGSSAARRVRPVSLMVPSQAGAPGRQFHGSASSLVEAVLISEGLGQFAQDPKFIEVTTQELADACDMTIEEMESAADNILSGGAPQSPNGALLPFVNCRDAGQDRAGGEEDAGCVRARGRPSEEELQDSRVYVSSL

[10] = molecular target: Voltage-gated inwardly rectifying potassium channel KCNH2 (Homo sapiens, UniProt Q12809); assay: Binding affinity to human ERG channel
[11] = molecular target: T1, Beta-3 adrenergic receptor; assay: Agonist activity at human beta3 adrenergic receptor expressed in CHO cells assessed as accumulation of cAMP after 30 mins by TR-FRET assay relative to (R)-(-)-isoproterenol; assay type: functional, cell-based
Target sequence in this assay (P13945 whole entry, looked up): as the sequence (P13945 whole entry, looked up) above

[12] = molecular target: T1, Beta-3 adrenergic receptor; assay: Agonist activity at human beta3 adrenergic receptor expressed in CHO cells assessed as accumulation of cAMP after 30 mins by TR-FRET assay; assay type: functional, cell-based
Target sequence in this assay (P13945 whole entry): as the sequence (P13945 whole entry, looked up) above

[13] = Plasma clearance in rat at 1 mg/kg, iv or 2 mg/kg, po; assay type: ADME, organism-based
[14] = Plasma clearance in dog at 0.5 mg/kg, iv or 2 mg/kg, po; assay type: ADME, organism-based, Canis lupus familiaris
[15] = Stability in human plasma assessed as parent compound remaining at 24 hrs by LC-MS analysis; assay type: ADME, cell-free; conditions: read-out: Stability
[16] = Plasma clearance in rhesus monkey at 0.5 mg/kg, iv or 2 mg/kg, po; assay type: ADME, organism-based, Macaca mulatta
[17] = test system: Rattus norvegicus; assay: Unbound clearance in rat at 1 mg/kg, iv or 2 mg/kg, po; assay type: ADME, organism-based; conditions: in vivo
[18] = test system: Canis familiaris; assay: Unbound clearance in dog at 0.5 mg/kg, iv or 2 mg/kg, po; assay type: ADME, organism-based, Canis lupus familiaris; conditions: in vivo
[19] = test system: Rhesus monkey; assay: Unbound clearance in rhesus monkey at 0.5 mg/kg, iv or 2 mg/kg, po; assay type: ADME, organism-based, Macaca mulatta; conditions: in vivo
[20] = Half life in rat at 1 mg/kg, iv or 2 mg/kg, po; assay type: ADME, organism-based; conditions: in vivo
[21] = Half life in dog at 0.5 mg/kg, iv or 2 mg/kg, po; assay type: ADME, organism-based, Canis lupus familiaris; conditions: in vivo
[22] = Half life in rhesus monkey at 0.5 mg/kg, iv or 2 mg/kg, po; assay type: ADME, organism-based, Macaca mulatta; conditions: in vivo
[23] = test system: Rattus norvegicus; assay: Dose normalized total AUC in rat at 2 mg/kg, po; assay type: ADME, organism-based; conditions: in vivo
[24] = test system: Canis familiaris; assay: Dose normalized total AUC in dog at 2 mg/kg, po; assay type: ADME, organism-based, Canis lupus familiaris; conditions: in vivo
[25] = test system: Rhesus monkey; assay: Dose normalized total AUC in rhesus monkey at 2 mg/kg, po; assay type: ADME, organism-based, Macaca mulatta; conditions: in vivo
[26] = test system: Rattus norvegicus; assay: Dose normalized fAUC in rat at 2 mg/kg, po; assay type: ADME, organism-based; conditions: in vivo
[27] = test system: Canis familiaris; assay: Dose normalized fAUC in dog at 2 mg/kg, po; assay type: ADME, organism-based, Canis lupus familiaris; conditions: in vivo
[28] = test system: Rhesus monkey; assay: Dose normalized fAUC in rhesus monkey at 2 mg/kg, po; assay type: ADME, organism-based, Macaca mulatta; conditions: in vivo
[29] = Oral bioavailability in rat at 2 mg/kg; assay type: ADME, organism-based; conditions: in vivo
[30] = Oral bioavailability in dog at 2 mg/kg; assay type: ADME, organism-based, Canis lupus familiaris; conditions: in vivo
[31] = Oral bioavailability in rhesus monkey at 2 mg/kg; assay type: ADME, organism-based, Macaca mulatta; conditions: in vivo
[32] = Fraction unbound in rat at 1 mg/kg, iv or 2 mg/kg, po; assay type: ADME, organism-based; conditions: in vivo
[33] = Fraction unbound in dog at 0.5 mg/kg, iv or 2 mg/kg, po; assay type: ADME, organism-based, Canis lupus familiaris; conditions: in vivo
[34] = Fraction unbound in rhesus monkey at 0.5 mg/kg, iv or 2 mg/kg, po; assay type: ADME, organism-based, Macaca mulatta; conditions: in vivo
[35] = Intrinsic clearance in rat liver microsomes; assay type: ADME; conditions: read-out: CLH
[36] = Intrinsic clearance in dog liver microsomes; assay type: ADME, Canis lupus familiaris; conditions: read-out: CLH
[37] = Intrinsic clearance in human liver microsomes; assay type: ADME; conditions: read-out: CLH
[38] = Intrinsic clearance in rhesus monkey liver microsomes; assay type: ADME, Macaca mulatta; conditions: read-out: CLH
[39] = Stability in rat plasma assessed as parent compound remaining at 24 hrs by LC-MS analysis; assay type: ADME, cell-free; conditions: read-out: Stability
[40] = Stability in dog plasma assessed as parent compound remaining at 24 hrs by LC-MS analysis; assay type: ADME, cell-free, Canis lupus familiaris; conditions: read-out: Stability
[41] = Stability in rhesus monkey plasma assessed as parent compound remaining at 24 hrs by LC-MS analysis; assay type: ADME, cell-free, Macaca mulatta; conditions: read-out: Stability
[42] = Inhibition of rat choline transporter
[43] = molecular target: T2, Beta-3 adrenergic receptor (Rattus norvegicus, UniProt P26255); assay: Agonist activity at rat beta3 adrenergic receptor expressed in CHO cells assessed as accumulation of cAMP after 30 mins by TR-FRET assay; assay type: functional, cell-based
T2 sequence (P26255 whole entry): as the sequence (P26255 whole entry) above

[44] = molecular target: Beta-3 adrenergic receptor (Rattus norvegicus) (UniProt P26255); assay: Agonist activity at rat beta3 adrenergic receptor expressed in CHO cells assessed as accumulation of cAMP after 30 mins by TR-FRET assay relative to (R)-(-)-isoproterenol; assay type: functional, cell-based
[45] = molecular target: T3, Beta-3 adrenergic receptor (Macaca mulatta, UniProt Q28524); assay: Agonist activity at rhesus monkey beta3 adrenergic receptor expressed in CHO cells assessed as accumulation of cAMP after 30 mins by TR-FRET assay; assay type: functional, cell-based
T3 sequence (Q28524 whole entry): as the sequence (Q28524 whole entry) above

[46] = molecular target: Beta-3 adrenergic receptor (Macaca mulatta) (UniProt Q28524); assay: Agonist activity at rhesus monkey beta3 adrenergic receptor expressed in CHO cells assessed as accumulation of cAMP after 30 mins by TR-FRET assay relative to (R)-(-)-isoproterenol; assay type: functional, cell-based
[47] = molecular target: T2, Beta-3 adrenergic receptor; assay: Agonist activity at rat beta3 adrenergic receptor expressed in CHO cells assessed as accumulation of cAMP after 30 mins by TR-FRET assay in presence of 40% serum; assay type: functional, cell-based
[48] = molecular target: T3, Beta-3 adrenergic receptor; assay: Agonist activity at rhesus monkey beta3 adrenergic receptor expressed in CHO cells assessed as accumulation of cAMP after 30 mins by TR-FRET assay in presence of 40% serum; assay type: functional, cell-based
[49] = molecular target: T1, Beta-3 adrenergic receptor; assay: Agonist activity at human adrenergic beta3 receptor expressed in CHO cells assessed as accumulation of cAMP after 30 mins by TR-FRET assay in presence of 40% serum; assay type: functional, cell-based
Target sequence in this assay (P13945 whole entry): as the sequence (P13945 whole entry, looked up) above

[50] = test system: Rattus norvegicus; assay: Increase in detrusor muscle relaxation in iv infused Sprague-Dawley rat acetic acid-induced bladder hyperreflexia model assessed as decrease in micturition pressure measured over 30 to 45 mins; assay type: functional, organism-based
[51] = test system: Rattus norvegicus; assay: Increase in detrusor muscle relaxation in iv infused Sprague-Dawley rat acetic acid-induced bladder hyperreflexia model assessed as increase in functional bladder capacity measured over 30 to 45 mins; assay type: organism-based
[52] = molecular target: Beta-2 adrenergic receptor (Homo sapiens, UniProt P07550)
Chain of Beta-2 adrenergic receptor (P07550 whole entry): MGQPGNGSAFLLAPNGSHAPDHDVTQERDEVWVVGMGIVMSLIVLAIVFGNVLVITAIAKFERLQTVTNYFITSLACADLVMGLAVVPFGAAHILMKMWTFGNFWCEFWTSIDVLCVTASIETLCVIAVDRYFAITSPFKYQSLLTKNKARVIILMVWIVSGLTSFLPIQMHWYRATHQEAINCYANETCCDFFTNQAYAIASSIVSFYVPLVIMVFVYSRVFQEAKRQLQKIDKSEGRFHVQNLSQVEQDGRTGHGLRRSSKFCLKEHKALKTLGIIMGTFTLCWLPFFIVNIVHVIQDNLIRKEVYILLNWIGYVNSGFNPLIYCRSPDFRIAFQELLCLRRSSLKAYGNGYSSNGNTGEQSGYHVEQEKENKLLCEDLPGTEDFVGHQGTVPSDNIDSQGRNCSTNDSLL
Description: Displacement of [125]I-cyanopindolol from human recombinant beta2 adrenergic receptor after 1 hr by scintillation counting method

[53] = molecular target: Beta-1 adrenergic receptor (Homo sapiens, UniProt P08588)
Description: Displacement of [125]I-cyanopindolol from recombinant human beta1 adrenergic receptor after 1 hr by scintillation counting method

[54] = molecular target: Sodium-dependent dopamine transporter (Homo sapiens, UniProt Q01959); assay: Inhibition of human dopamine transporter

EC50 [1]: 0.039 µM
max activation [2]: 98%
max activation [3]: 83%
max activation [4]: 91%
AC50 [5]: 42 µM
IC50 [6]: > 10 µM
logD [7]: 1.3
IC50 [8]: > 30 µM
max activation [11]: 92%
EC50 [12]: 0.0027 µM
clearance [13]: 36 mL/min/kg
clearance [14]: 23 mL/min/kg
remaining at 24 h [15]: 100%
clearance [16]: 33 mL/min/kg
CL free [17]: 180 mL/min/kg
CL free [18]: 59 mL/min/kg
CL free [19]: 46 mL/min/kg
half-life [20]: 2 h
half-life [21]: 9 h
half-life [22]: 9 h
AUC/dose [23]: 100 nM·h/mg/kg
AUC/dose [24]: 290 nM·h/mg/kg
AUC/dose [25]: 300 nM·h/mg/kg
fAUC/dose [26]: 20 nM·h/mg/kg
fAUC/dose [27]: 113 nM·h/mg/kg
fAUC/dose [28]: 213 nM·h/mg/kg
bioavailability [29]: 10%
bioavailability [30]: 91%
bioavailability [31]: 29%
fraction unbound [32]: 0.2
fraction unbound [33]: 0.39
fraction unbound [34]: 0.71
CLint scaled [35]: 31 mL/min/kg
CLint scaled [36]: 34 mL/min/kg
CLint scaled [37]: 10 mL/min/kg
CLint scaled [38]: 17 mL/min/kg
remaining at 24 h [39]: 95%
remaining at 24 h [40]: 77%
remaining at 24 h [41]: 99%
IC50 [42]: 2.3 µM
EC50 [43]: 0.531 µM
max activation [44]: 85%
EC50 [45]: 0.0025 µM
max activation [46]: 91%
EC50 [47]: 0.245 µM
EC50 [48]: 0.012 µM
EC50 [49]: 0.0021 µM
IC50 [52]: > 20 µM
IC50 [53]: > 20 µM
Compound: C[C@@H](C(=O)Nc1ccc(C[C@@H]2CC[C@H]([C@H](O)c3ccccc3)N2)cc1)n1ncccc1=O
IC50 [9]: > 30 µM
IC50 [10]: > 30 µM
Activity [50]: Dose-dependent effect
Activity [51]: Dose-dependent effect

AC50 [5]: 33 µM
IC50 [6]: 7.1 µM
IC50 [8]: > 30 µM
max activation [11]: 94%
EC50 [12]: 0.00062 µM
clearance [13]: 77 mL/min/kg
clearance [14]: 26 mL/min/kg
remaining at 24 h [15]: 100%
half-life [20]: 3 h
half-life [21]: 6 h
AUC/dose [23]: 110 nM·h/mg/kg
AUC/dose [24]: 1500 nM·h/mg/kg
bioavailability [29]: 21%
bioavailability [30]: 100%
CLint scaled [35]: 29 mL/min/kg
CLint scaled [36]: 13 mL/min/kg
CLint scaled [37]: 19 mL/min/kg
CLint scaled [38]: 137 mL/min/kg
remaining at 24 h [39]: 92%
remaining at 24 h [40]: 92%
remaining at 24 h [41]: 72%
IC50 [54]: 4.8 µM
IC50 [52]: > 20 µM
IC50 [53]: > 20 µM
Compound: O=C(Nc1ccc(C[C@@H]2CC[C@H]([C@H](O)c3ccccc3)N2)cc1)[C@@H]1CCc2cccc(=O)n21
IC50 [9]: > 30 µM
